Data taken from patent publication US20140128733A1, “SYSTEMS AND METHODS FOR HEMODYNAMIC DETECTION OF CIRCULATORY ANOMALIES” (Cardiox Corporation, priority 2008, published 2014).
Counter-ions that a name gives are not always drawn.

Columns and labels:
[1] = Excitation and fluorescence signal attenuation through tissue versus depth of artery (FIG. 2); format: physicochemical; settings: FIG. 2 curve 38
Description: (§1) Looking to the ICG dye spectrum, an excitation curve is shown at 34, having a peak excitation wavelength at about 785 nanometers. Correspondingly, the fluorescence emission from excitation at curve 34 is represented at curve 36 with a peak emission wavelength of about 830 nanometers. Directed across FIG. 2 is a curve 38 representing the level of constant signal attenuation or absorption of about 37% resulting from passage of signal through tissue. Note that if a blood vessel is about one millimeter beneath the surface of skin, the system would perform at about 37% of the original intensity of the excitation signal and fluorescence signal for the case of ICG dye indicator. In contrast, a 37% decrease in excitation and emission signal level would result for the fluorescein dye indicator at a tissue thickness of only 0.25 mm. Since the blood vessels being targeted are at least 1 mm below the skin surface, the attenuation and associated signal loss would be much larger. Therefore, ICG dye is the preferred indicator.
Turning again to the ICG dye spectrum, note that the excitation signal 34 for ICG intersects curve 38 at a depth allowing for readily reaching blood vessels, for example within the pinna (e.g., scaphoid fossa) of the ear. Accordingly, ICG dye is usable as a circulatory tracking agent when detecting through skin, and ICG dye was the indicator elected for subsequent study.

[2] = Excitation and fluorescence emission wavelengths of the dyes (FIG. 2); format: physicochemical
Description: Looking to FIG. 2 in this regard, the excitation signal for fluorescein dye is represented at curve 30 which is an excitation signal at less than about 500 nanometers (nm). A resultant fluorescence emission from the excitation at 30 is shown at curve 32, at a wavelength of about 525 nm.
as §1
When an ICG indicator within the bloodstream reaches the site of irradiation with 785 nm (laser) light, the fluorescent moiety within the ICG indicator is excited as described in connection with FIG. 2 to an elevated energy state for a brief period. As the excited moiety returns to its normal energy state, it emits light at a longer wavelength (viz., 830 nm) and the difference between the excitation wavelength (viz., 785 nm) and the fluorescence emission wavelength (viz., 830 nm) is known as the Stokes Shift. This Stokes Shift of nominally 45 nm allows the fluoresce emission to be extracted by using a interferential or other type of optical filter to reflect or otherwise attenuate all but the wavelength band of interest (viz., 820 to 840 nm).

tissue depth at constant signal attenuation of about 37% [1]: about one
excitation wavelength ([2]; FIG. 2): about 785 nm
fluorescence emission wavelength ([2]; FIG. 2): about 830 nm
Stokes Shift ([2]; difference between excitation and fluorescence emission wavelength): ~45 nm
Compound: CC1(C)C(/C=C/C=C/C=C/C=C2\N(CCCCS(=O)(=O)O)c3ccc4ccccc4c3C2(C)C)=[N+](CCCCS(=O)(=O)[O-])c2ccc3ccccc3c21 [ICG, 2-[7-[1,1-dimethyl-3-(4-sulfobutyl)benz[e]indolin-2-ylidene]-1,3,5-heptatrienyl]-1,1-dimethyl-3-(4-sulfobutyl)-1H-benz[e]indolium hydroxide, inner salt, sodium salt]
